The values that follow come from ChEMBL document CHEMBL3301562, “MMV Box screening against Plasmodium falciparum protein kinases and aminoacyl tRNA synthetases”.

The structures appear in SMILES notation.

Common to all, as to assay type: functional
Assay [1] has as its target Calcium-dependent protein kinase 1 (Plasmodium falciparum, UniProt P62344). Put plainly: MMV: CDPK1 Protein kinase inhibition assay using recombinant PfCDPK1, syntide 2 peptide substrate, ATP and KinaseGlo to measure % inhibition at 1 uM MMV box compound.
Assay [2] concerns the target T1, Mitogen-activated protein kinase (Plasmodium falciparum, UniProt Q25917).
T1 sequence (Q25917 whole entry): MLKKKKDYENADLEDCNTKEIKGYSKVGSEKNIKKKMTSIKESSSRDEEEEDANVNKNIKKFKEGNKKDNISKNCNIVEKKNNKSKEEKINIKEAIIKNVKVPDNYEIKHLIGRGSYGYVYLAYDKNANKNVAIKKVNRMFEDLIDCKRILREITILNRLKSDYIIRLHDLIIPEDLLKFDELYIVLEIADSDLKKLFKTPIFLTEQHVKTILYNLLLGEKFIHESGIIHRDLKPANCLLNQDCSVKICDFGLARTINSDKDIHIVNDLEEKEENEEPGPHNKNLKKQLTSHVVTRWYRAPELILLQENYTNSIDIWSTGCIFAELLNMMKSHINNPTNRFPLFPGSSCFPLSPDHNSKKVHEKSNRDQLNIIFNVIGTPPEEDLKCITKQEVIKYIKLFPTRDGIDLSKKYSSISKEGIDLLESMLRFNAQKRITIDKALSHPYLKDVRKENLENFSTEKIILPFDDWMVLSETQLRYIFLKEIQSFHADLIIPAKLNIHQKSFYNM
In words: Final concentrations were 1 uM ATP, 0.5 mM DTT, 1 mM MgCl2, 0.5 mg/mL BSA, and 10 ug/ml MAP2 in a buffer of 50 mM HEPES (pH 7.0). 0.5 mg/mL histone III-S served as the substrate (13); 100 uM AMP-PNP, an ATP analog, was used as a control inhibitor. Incubation time was 4 hours.

The target of assay [3] is T2, Proline--tRNA ligase (Plasmodium falciparum (isolate 3D7), UniProt Q8I5R7).
T2 sequence (Q8I5R7 whole entry): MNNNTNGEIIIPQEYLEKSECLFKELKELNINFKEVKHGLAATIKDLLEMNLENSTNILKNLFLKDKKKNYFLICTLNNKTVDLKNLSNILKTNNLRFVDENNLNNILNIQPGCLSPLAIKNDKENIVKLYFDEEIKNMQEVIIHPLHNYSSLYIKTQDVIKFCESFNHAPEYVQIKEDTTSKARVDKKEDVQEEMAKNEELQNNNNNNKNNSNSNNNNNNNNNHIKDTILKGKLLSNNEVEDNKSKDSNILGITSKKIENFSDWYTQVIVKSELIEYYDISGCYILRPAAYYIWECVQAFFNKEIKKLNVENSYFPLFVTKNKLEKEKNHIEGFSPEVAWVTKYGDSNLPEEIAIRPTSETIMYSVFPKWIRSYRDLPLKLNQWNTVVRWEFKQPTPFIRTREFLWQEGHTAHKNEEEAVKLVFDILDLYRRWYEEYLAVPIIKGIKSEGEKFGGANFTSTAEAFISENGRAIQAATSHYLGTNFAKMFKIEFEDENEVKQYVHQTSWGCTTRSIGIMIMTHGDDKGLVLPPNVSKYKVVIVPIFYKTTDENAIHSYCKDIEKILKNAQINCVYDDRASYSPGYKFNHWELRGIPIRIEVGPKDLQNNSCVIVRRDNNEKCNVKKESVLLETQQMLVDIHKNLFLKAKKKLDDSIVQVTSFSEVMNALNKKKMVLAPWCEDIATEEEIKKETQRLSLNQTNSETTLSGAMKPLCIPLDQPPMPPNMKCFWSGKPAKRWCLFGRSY
Put plainly: MMV: ProRS recombinant Plasmodium falciparum Prolyl-tRNA-synthetase, assay with yeast tRNA, ATP, and proline and 3 uM MMV malaria box compound, assay read out with kinase glo as % inhibition. A general note: Kinase-Glo measures the ATP left after a reaction by luminescence.

The target of assay [4] is T3, Cdk-related protein kinase 6 (Plasmodium falciparum, UniProt O77239).
T3 sequence (O77239 whole entry): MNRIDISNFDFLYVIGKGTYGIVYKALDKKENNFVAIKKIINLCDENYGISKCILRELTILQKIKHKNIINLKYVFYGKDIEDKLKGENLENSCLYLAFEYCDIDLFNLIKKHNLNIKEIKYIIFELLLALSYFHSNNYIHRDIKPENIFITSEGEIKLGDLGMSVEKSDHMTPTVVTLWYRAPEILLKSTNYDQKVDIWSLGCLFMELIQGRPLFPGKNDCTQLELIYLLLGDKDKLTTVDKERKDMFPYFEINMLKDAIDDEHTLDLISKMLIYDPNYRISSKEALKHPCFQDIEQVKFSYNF
Put plainly: Final concentrations were 1.5 uM ATP, 5 mM MnCl2, and 15 ug/ml PK6 in a buffer of 100 mM Tris-HCl (pH 7.5). 50 ug/mL MBP was provided as the substrate; 10 uM staurosporine was used as a control inhibitor. Incubation time was 3 hours and 40 minutes.The catalytic activity of each kinase was considered proportional to ATP consumed, as determined from measurements of residual [ATP] with the luciferase-based reagent Kinase-Glo (Promega) following incubation. Luminescence (proportional to residual [ATP]) was measured on the plate readers FLx800 (BioTek Instruments, Winooski, VT, USA) and MicroBeta2.

Assay [5] deals with Lysine--tRNA ligase (Plasmodium falciparum (isolate 3D7), UniProt Q8IDJ8). Put plainly: MMV: KRS recombinant Plasmodium falciparum Lysyl-tRNA-synthetase, assay with yeast tRNA, ATP, and lysine and 3 uM MMV malaria box compound, assay read out with kinase glo as % inhibition.
Chain of Lysine--tRNA ligase (Q8IDJ8 whole entry): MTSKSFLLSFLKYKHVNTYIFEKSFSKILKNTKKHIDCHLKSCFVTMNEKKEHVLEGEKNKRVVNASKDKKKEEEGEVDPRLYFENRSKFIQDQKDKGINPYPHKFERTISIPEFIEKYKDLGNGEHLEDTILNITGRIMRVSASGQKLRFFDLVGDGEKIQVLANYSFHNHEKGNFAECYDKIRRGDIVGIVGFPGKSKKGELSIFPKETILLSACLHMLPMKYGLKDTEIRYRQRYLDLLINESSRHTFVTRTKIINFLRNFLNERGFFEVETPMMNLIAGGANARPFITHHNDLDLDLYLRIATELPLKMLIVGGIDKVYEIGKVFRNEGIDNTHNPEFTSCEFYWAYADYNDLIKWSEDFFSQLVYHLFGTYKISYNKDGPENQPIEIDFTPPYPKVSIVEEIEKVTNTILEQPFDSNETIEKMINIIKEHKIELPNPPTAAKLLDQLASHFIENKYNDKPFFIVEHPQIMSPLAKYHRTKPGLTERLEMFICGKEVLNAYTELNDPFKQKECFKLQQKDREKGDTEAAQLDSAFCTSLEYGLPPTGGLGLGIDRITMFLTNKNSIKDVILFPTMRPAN
Assay [6] deals with T4, Calcium-dependent protein kinase 4 (Plasmodium falciparum (isolate 3D7), UniProt Q8IBS5).
T4 sequence (Q8IBS5 whole entry): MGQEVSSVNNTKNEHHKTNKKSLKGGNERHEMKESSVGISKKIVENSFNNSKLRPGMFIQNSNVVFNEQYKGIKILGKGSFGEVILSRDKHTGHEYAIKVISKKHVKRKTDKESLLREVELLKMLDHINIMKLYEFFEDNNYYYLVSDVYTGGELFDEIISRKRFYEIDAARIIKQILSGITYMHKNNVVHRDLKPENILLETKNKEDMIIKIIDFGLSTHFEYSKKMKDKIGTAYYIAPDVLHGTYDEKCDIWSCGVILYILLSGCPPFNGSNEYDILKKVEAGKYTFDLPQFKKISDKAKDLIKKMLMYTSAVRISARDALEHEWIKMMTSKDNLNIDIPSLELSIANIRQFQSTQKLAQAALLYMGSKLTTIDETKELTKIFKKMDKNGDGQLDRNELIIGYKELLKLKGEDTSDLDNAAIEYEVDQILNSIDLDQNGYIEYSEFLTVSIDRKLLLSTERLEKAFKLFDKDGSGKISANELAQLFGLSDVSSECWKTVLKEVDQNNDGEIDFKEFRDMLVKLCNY
In words: MMV: CDPK4 Protein kinase inhibition assay using recombinant PfCDPK4, syntide2 peptide substrate, ATP and KinaseGlo to measure % inhibition at 1 uM MMV box compound.

Assay [7] deals with T5, Putative uncharacterized protein pk7 (Plasmodium falciparum, UniProt O96214).
T5 sequence (O96214 whole entry): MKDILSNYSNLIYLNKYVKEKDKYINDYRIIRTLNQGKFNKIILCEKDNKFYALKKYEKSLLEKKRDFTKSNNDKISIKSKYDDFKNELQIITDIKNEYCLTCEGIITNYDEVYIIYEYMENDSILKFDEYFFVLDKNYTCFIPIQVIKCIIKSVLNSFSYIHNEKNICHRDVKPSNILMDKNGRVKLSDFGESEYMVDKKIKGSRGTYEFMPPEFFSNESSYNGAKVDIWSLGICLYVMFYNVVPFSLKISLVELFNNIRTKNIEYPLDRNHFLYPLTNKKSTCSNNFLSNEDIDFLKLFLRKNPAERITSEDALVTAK
In words: Final concentrations were 1 uM ATP, 2 mM DTT, 20 mM MgCl2, 2 mM MnCl2, 0.01% BSA, and 6 ug/ml PK7, in a buffer of 20 mM Tris-HCl (pH 7.5). The enzyme itself was the only substrate present (since autophosphorylation occurs); 100 uM 1NA-PP1 was used as a control inhibitor. Incubation time was 3 hours.

Chain of Calcium-dependent protein kinase 1 (P62344 whole entry): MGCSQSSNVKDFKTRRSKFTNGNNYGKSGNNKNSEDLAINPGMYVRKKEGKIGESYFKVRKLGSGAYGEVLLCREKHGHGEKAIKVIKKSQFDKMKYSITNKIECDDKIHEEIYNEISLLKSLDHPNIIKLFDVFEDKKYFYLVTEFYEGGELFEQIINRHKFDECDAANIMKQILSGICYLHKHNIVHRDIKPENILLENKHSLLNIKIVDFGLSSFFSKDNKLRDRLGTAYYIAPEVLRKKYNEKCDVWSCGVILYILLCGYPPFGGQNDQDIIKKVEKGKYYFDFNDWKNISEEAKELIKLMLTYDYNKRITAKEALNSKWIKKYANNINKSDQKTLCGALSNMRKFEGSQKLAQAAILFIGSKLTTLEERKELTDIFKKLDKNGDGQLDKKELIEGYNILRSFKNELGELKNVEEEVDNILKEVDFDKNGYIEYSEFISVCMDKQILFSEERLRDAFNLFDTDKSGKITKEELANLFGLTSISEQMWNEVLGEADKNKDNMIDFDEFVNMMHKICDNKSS

Regarding `COc1ccc(-c2cc3c(nn2)-c2ccccc2C3=O)cc1`, the IC50 was over 1000 nM in assay [1]; over 1000 nM in assay [2]; over 2500 nM in assay [3]; over 1000 nM in assay [4]; over 2500 nM in assay [5]; over 1000 nM in assay [6]. The molecule also came in with an IC50 in assay [7] of over 1000 nM.

Consider `c1ccc(/C2=N/c3ccccc3/N=C(/c3ccccc3)c3ccccc32)cc1`, for which the IC50 in assay [1] was over 1000 nM; in assay [2], over 1000 nM; in assay [3], over 2500 nM; in assay [4] it was over 1000 nM; in assay [5], over 2500 nM; in assay [6], over 1000 nM. The same molecule had an IC50 in assay [7] of over 1000 nM.

`COc1ccc(CN2CCCC(C(=O)c3ccc(C(F)(F)F)cc3)C2)c(O)c1` (stereo not drawn): the IC50 is over 1000 nM in assay [1]; over 1000 nM in assay [2]; over 2500 nM in assay [3]; over 1000 nM in assay [4]; over 2500 nM in assay [5]; over 1000 nM in assay [6]. In assay [7], this molecule gave a concentration for half-maximal inhibition (IC50) of over 1000 nM.

As to `Brc1ccc(Nc2nc3ccccc3nc2Nc2ccc(Br)cc2)cc1`, the IC50 in assay [1] was over 1000 nM; in assay [2] it was over 1000 nM; in assay [3] it was over 2500 nM; in assay [4], over 1000 nM; in assay [5] it was over 2500 nM; in assay [6], over 1000 nM. For the same molecule, in assay [7], the IC50 is over 1000 nM.

On to `Cc1cc(Nc2ccc(OCc3ccccc3)cc2)nc2cc(O)ccc12`, for which the IC50 is over 1000 nM in assay [1]; over 1000 nM in assay [2]; over 2500 nM in assay [3]; over 1000 nM in assay [4]; over 2500 nM in assay [5]; over 1000 nM in assay [6]. In assay [7], this molecule gave an IC50 of over 1000 nM.

Consider `N=c1c2ccccc2nnn1-c1cccc(C(F)(F)F)c1`, for which the IC50 in assay [1] was over 1000 nM; in assay [2] it was over 1000 nM; in assay [3] it was over 2500 nM; in assay [4], over 1000 nM; in assay [5], over 2500 nM; in assay [6], over 1000 nM. Also, the IC50 in assay [7] was over 1000 nM.

Take `COc1cc(-c2nc(-c3ccc(Sc4ccccc4)cc3)c(-c3ccccc3)[nH]2)cc(OC)c1O`: the IC50 in assay [1] is over 1000 nM; in assay [2], over 1000 nM; in assay [3], over 2500 nM; in assay [4], over 1000 nM; in assay [5] it was over 2500 nM; in assay [6], over 1000 nM. In addition, the IC50 in assay [7] is over 1000 nM.

Consider `OC(Cn1nnc2ccccc21)Cn1c2ccc(Br)cc2c2cc(Br)ccc21` (stereo not drawn), for which the IC50 in assay [1] is over 1000 nM; in assay [2], over 1000 nM; in assay [3] it was over 2500 nM; in assay [4], over 1000 nM; in assay [5], over 2500 nM; in assay [6], over 1000 nM. Also, in assay [7], the IC50 was over 1000 nM.

Take `Cc1ccc(-c2nc3ccccc3o2)cc1NCc1cc(Cc2ccccc2)ccc1O`: the IC50 was over 1000 nM in assay [1]; over 1000 nM in assay [2]; over 2500 nM in assay [3]; over 1000 nM in assay [4]; over 2500 nM in assay [5]; over 1000 nM in assay [6]. This molecule also had an IC50 in assay [7] of over 1000 nM.

`O=C(Cc1ccccc1)NC(c1ccc(Cl)cc1)c1c(O)ccc2ccccc12` (stereo not drawn): the IC50 is over 1000 nM in assay [1]; over 1000 nM in assay [2]; over 2500 nM in assay [3]; over 1000 nM in assay [4]; over 2500 nM in assay [5]; over 1000 nM in assay [6]. The IC50 in assay [7] was over 1000 nM.

Turning to `Cc1cccc(N2C(=O)C3C(C2=O)C2(c4ccccc4)C(=O)C3(c3ccccc3)C(c3ccc4c(c3)OCO4)=C2c2ccc3c(c2)OCO3)c1` (stereo not drawn), the IC50 in assay [1] is over 1000 nM; in assay [2] it was over 1000 nM; in assay [3] it was over 2500 nM; in assay [4], over 1000 nM; in assay [5] it was over 2500 nM; in assay [6] it was over 1000 nM. For the same molecule, in assay [7], the IC50 was over 1000 nM.

Take `Cc1ccc(F)cc1NC(=O)c1cc(Cl)ccc1Nc1ccccc1`: the IC50 in assay [1] is over 1000 nM; in assay [2], over 1000 nM; in assay [3], over 2500 nM; in assay [4] it was over 1000 nM; in assay [5], over 2500 nM; in assay [6], over 1000 nM. Moreover, the IC50 in assay [7] was over 1000 nM.

As to `CCCCCCc1cc2cc(-c3nc4ccccc4[nH]3)c(=Nc3ccccc3C)oc2cc1O`, the IC50 in assay [1] is over 1000 nM; in assay [2] it was over 1000 nM; in assay [3], over 2500 nM; in assay [4], over 1000 nM; in assay [5], over 2500 nM; in assay [6], over 1000 nM. Moreover, the IC50 in assay [7] was over 1000 nM.

On to `CN(C)c1ccc(N=Cc2ccc(N3CCOCC3)cc2)cc1`, for which the IC50 was over 1000 nM in assay [1]; over 1000 nM in assay [2]; over 2500 nM in assay [3]; over 1000 nM in assay [4]; over 2500 nM in assay [5]; over 1000 nM in assay [6]. The molecule also gave an IC50 in assay [7] of over 1000 nM.

As a reminder, the IC50 is the concentration that gives 50% inhibition.
